Assay results: PMC8400033, “A Multicomponent Protocol for the Synthesis of Highly Functionalized γ-Lactam Derivatives and Their Applications as Antiproliferative Agents” (Pharmaceuticals, 2021)
Like-named read-outs stand apart in the source and are kept apart here.

Columns and labels:
[1] = system: SKOV3 (human ovarian carcinoma); test: CCK-8 antiproliferative assay, SKOV3 cell line
Protocol: (§1) In vitro cytotoxicity of the γ-lactam derivatives was evaluated by testing their antiproliferative activities against several human cancer cell lines. Cell counting kit (CCK-8) assay was used for the evaluation of growth inhibition.
(§2) All stock solutions of the investigated compounds were prepared by dissolving the powdered materials in appropriate amounts of DMSO. The final concentration of DMSO never exceeded 5% (v/v) in reactions. The stock solution was stored at 5 °C until it was used.
(§3) All were supplemented with 10% of fetal bovine serum (FBS) (Sigma-Aldrich, Madrid, Spain) and with 1% of NORMOCIN solution (Thermo Fisher, Waltham, Massachusetts, MA, USA). […] For cytotoxicity experiments, A549 cells were seeded in 96-well plates at a density of 2.5–3 × 10^3 cells per well and incubated overnight to achieve 70% of confluence at the time of exposition to the cytotoxic compound.

[2] = system: A549 (carcinomic human alveolar basal epithelial cell); test: CCK-8 antiproliferative assay, A549 cell line; type: cell-based
Protocol: as §1, §2, §3
(§4) Both were supplemented with 10% of fetal bovine serum (FBS) (Sigma-Aldrich, Spain) and with 1% of NORMOCIN solution (Thermo Fisher, Waltham, Massachusetts, MA, USA). […] For cytotoxicity experiments, A549 cells were seeded in 96-well plates at a density of 2.5–3 × 10^3 cells per well and incubated overnight to achieve 70% of confluence at the time of exposition to the cytotoxic compound.

[3] = system: MRC5 non-malignant lung fibroblasts; test: CCK-8 assay on non-malignant cells for selective toxicity; type: cell-based; details: Homo sapiens
Protocol: as §1, §2, §3, §4

[4] = system: RKO (human colon epithelial carcinoma); test: CCK-8 antiproliferative assay, RKO cell line; type: cell-based
Protocol: as §1, §2, §3

[5] = Solubility in solvents compatible with in vitro assays; type: physicochemical; details: in words
[6] = Homo sapiens, SK-OV-3, read-out: IC50 SKOV3, SKOV3 cell line, CCK-8
[7] = Homo sapiens, A549, A549 cell line, CCK-8, read-out: IC50 A549
[8] = Homo sapiens, SK-OV-3, read-out: IC50 SKOV3
[9] = MRC5 non-malignant lung fibroblasts, CCK-8, read-out: IC50 MRC5
[10] = Homo sapiens, A549, read-out: IC50 A549
[11] = Homo sapiens, A549, read-out: IC50 of individual enantiomers of 4v

IC50 [1, 6]	SMILES	IC50 [2, 7]	IC50 [3, 9]	other results
> 50 µM	Cc1ccc(NC2=CC(c3ccc(C)cc3)N(c3ccc(C)cc3)C2=O)cc1 (stereo not drawn) [4c]	21 ± 1.64 µM	> 50 µM	melting point: 210 to 213 °C
> 50 µM	Cc1ccc(NC2=CC(c3cccc(C)c3)N(c3ccc(C)cc3)C2=O)cc1 (stereo not drawn) [4d]	31.2 ± 1.04 µM	> 50 µM	–
> 50 µM	Cc1ccc(NC2=CC(c3ccccc3C)N(c3ccc(C)cc3)C2=O)cc1 (stereo not drawn) [4e]	41.3 ± 1.29 µM	> 50 µM	–
23.5 ± 0.75 µM	Cc1ccc(NC2=CC(c3ccc(F)cc3)N(c3ccc(C)cc3)C2=O)cc1 (stereo not drawn) [4f]	10.7 ± 1.21 µM	> 50 µM	–
22.9 ± 0.63 µM	Cc1ccc(NC2=CC(c3ccc([N+](=O)[O-])cc3)N(c3ccc(C)cc3)C2=O)cc1 (stereo not drawn) [4g]	17.1 ± 1.58 µM	26.6 ± 2.89 µM	IC50 [4]: 23.8 ± 2.53 µM
27.7 ± 1.32 µM	Cc1ccc(NC2=CC(c3cccc([N+](=O)[O-])c3)N(c3ccc(C)cc3)C2=O)cc1 (stereo not drawn) [4h]	7.33 ± 0.57 µM	27.2 ± 1.24 µM	–
> 50 µM	Cc1ccc(NC2=CC(c3ccc(C(F)(F)F)cc3)N(c3ccc(C)cc3)C2=O)cc1 (stereo not drawn) [4i]	> 50 µM	–	IC50 [4]: > 50 µM
> 50 µM	Cc1ccc(NC2=CC(c3ccc4ccn(C)c4c3)N(c3ccc(C)cc3)C2=O)cc1 (stereo not drawn) [4j]	19.3 ± 0.7 µM	> 50 µM	–
> 50 µM	Cc1ccc(NC2=CC(c3ccco3)N(c3ccc(C)cc3)C2=O)cc1 (stereo not drawn) [4k]	11.5 ± 0.85 µM	> 50 µM	–
12.7 ± 1.83 µM	Cc1ccc(NC2=CC(c3cccs3)N(c3ccc(C)cc3)C2=O)cc1 (stereo not drawn) [4l]	12.7 ± 1.07 µM	> 50 µM	–
30.5 ± 1.34 µM	Cc1ccc(NC2=CC(c3ccc4ccccc4c3)N(c3ccc(C)cc3)C2=O)cc1 (stereo not drawn) [4m]	12.1 ± 0.74 µM	21.3 ± 0.74 µM	–
> 50 µM	Cc1ccc(NC2=CC(C(F)(F)F)N(c3ccc(C)cc3)C2=O)cc1 (stereo not drawn) [4u]	> 50 µM	–	IC50 [4]: > 50 µM
6.84 ± 0.59 µM	COc1ccc(NC2=CC(c3ccccc3)N(c3ccc(OC)cc3)C2=O)cc1 (stereo not drawn) [6a]	12 ± 1.96 µM	> 50 µM	–
> 50 µM	COc1ccc(NC2=CC(c3ccc([N+](=O)[O-])cc3)N(c3ccc(OC)cc3)C2=O)cc1 (stereo not drawn) [6b]	31.5 ± 1.37 µM	> 50 µM	IC50 [4]: > 50 µM
> 50 µM	O=C1C(Nc2ccc(Br)cc2)=CC(c2ccc([N+](=O)[O-])cc2)N1c1ccc(Br)cc1 (stereo not drawn) [8a]	> 50 µM	–	–
> 50 µM	O=C1C(Nc2ccc(Br)cc2)=CC(c2ccc(C(F)(F)F)cc2)N1c1ccc(Br)cc1 (stereo not drawn) [8b]	> 50 µM	–	IC50 [4]: > 50 µM
8.5 ± 0.54 µM	O=C1C(Nc2cccc(C(F)(F)F)c2)=CC(c2ccc([N+](=O)[O-])cc2)N1c1cccc(C(F)(F)F)c1 (stereo not drawn) [11b]	2 ± 0.78 µM	44.6 ± 1.16 µM	–
> 50 µM	O=C1C(Nc2ccc(Cl)cc2)=CC(c2ccc([N+](=O)[O-])cc2)N1c1ccc(Cl)cc1 (stereo not drawn) [compound 7]	17.2 ± 2.1 µM	> 50 µM	–

Second part, the compound before the results:

SMILES	IC50 [1, 6]	IC50 [2, 7]	IC50 [3, 9]	other results
CCOC(=O)[C@]1(C)C[C@@H](Nc2ccc(C)cc2)C(=O)N1c1ccc(C)cc1 (relative stereo) [compound 17, Ethyl (2S*, 4R*)-2-methyl-5-oxo-1-(p-tolyl)-4-(p-tolylamino)-pyrrolidine-2-carboxylate]	> 50 µM	> 50 µM	–	melting point: 173 to 174 °C
Cc1ccc(NC2=CCN(c3ccc(C)cc3)C2=O)cc1 [4a, 1-(p-Tolyl)-3-(p-tolylamino)-1,5-dihydro-2H-pyrrol-2-one]	–	–	> 50 µM	Cytotoxic activity against SKOV3 cell line, in words [1]: did not show activity; IC50 [1, 8]: > 50 µM; melting point: 178 to 180 °C
Cc1ccc(NC2=CC(C)N(c3ccc(C)cc3)C2=O)cc1 (stereo not drawn) [4n]	29.2 ± 1 µM	15.7 ± 0.92 µM	> 50 µM	–
Cc1ccc(NC2=CC(C(C)C)N(c3ccc(C)cc3)C2=O)cc1 (stereo not drawn) [4o]	> 50 µM	11.1 ± 0.71 µM	> 50 µM	–
Cc1ccc(NC2=CC(CC(C)C)N(c3ccc(C)cc3)C2=O)cc1 (stereo not drawn) [4p]	> 50 µM	20.1 ± 2 µM	24.1 ± 1.64 µM	melting point: 178 to 179 °C
Cc1ccc(NC2=CC(/C=C/c3ccccc3)N(c3ccc(C)cc3)C2=O)cc1 (stereo not drawn) [4r]	~10 µM	~10 µM	18.2 ± 0.81 µM	IC50 ([1]; read-out: IC50 SKOV3, SKOV3 cell line, CCK-8): 9.59 ± 0.82 µM; IC50 ([2]; A549 cell line, CCK-8, read-out: IC50 A549): 10.3 ± 0.8 µM
Cc1ccc(NC2=CC(c3c(F)c(F)c(F)c(F)c3F)N(c3ccc(C)cc3)C2=O)cc1 (stereo not drawn) [4t]	> 50 µM	33.5 ± 1.68 µM	> 50 µM	IC50 [4]: > 50 µM
CCOP(=O)(CC1C=C(Nc2ccc(C)cc2)C(=O)N1c1ccc(C)cc1)OCC (stereo not drawn) [4v]	–	–	–	IC50 [1, 8]: > 50 µM; IC50 [2, 10]: 11.3 ± 1.8 µM; IC50 ([3]; MRC5, read-out: IC50 MRC5): > 50 µM; IC50 [4]: > 50 µM
Cc1ccc(NC2=CC(CP(=O)(c3ccccc3)c3ccccc3)N(c3ccc(C)cc3)C2=O)cc1 (stereo not drawn) [4w]	10.8 ± 0.88 µM	5.67 ± 0.9 µM	30.1 ± 0.49 µM	IC50 [4]: 28.1 ± 1.47 µM
CC1=C(Nc2ccc(C)cc2)C(=O)N(c2ccc(C)cc2)C1c1ccc([N+](=O)[O-])cc1 (stereo not drawn) [5a]	> 50 µM	2.05 ± 0.23 µM	> 50 µM	–
Cc1ccc(NC2=C(Cc3ccccc3)C(c3ccc([N+](=O)[O-])cc3)N(c3ccc(C)cc3)C2=O)cc1 (stereo not drawn) [5b]	> 50 µM	9.92 ± 1.15 µM	47.6 ± 1.67 µM	–
COC(=O)C1=C(Nc2ccc(C)cc2)C(=O)N(c2ccc(C)cc2)C1c1ccccc1 (stereo not drawn) [5c]	–	–	> 50 µM	melting point: 179 to 181 °C
CCOP(=O)(OCC)C1=C(Nc2ccc(C)cc2)C(=O)N(c2ccc(C)cc2)C1 [5d]	–	–	–	IC50 [1, 8]: > 50 µM; IC50 [2, 10]: > 50 µM; IC50 ([3]; MRC5, read-out: IC50 MRC5): > 50 µM; IC50 [4]: > 50 µM
Cc1ccc(NC2=C(P(=O)(c3ccccc3)c3ccccc3)CN(c3ccc(C)cc3)C2=O)cc1 [5e]	–	–	–	Solubility in the solvents compatible with the tests for in vitro assays [5]: low solubility
CCOP(=O)(CC1C=C(Nc2ccc(OC)cc2)C(=O)N1c1ccc(OC)cc1)OCC (stereo not drawn) [6c]	–	–	–	Cytotoxic activity against SKOV3 cell line, in words [1]: did not show any cytotoxicity; IC50 [1, 8]: > 50 µM; IC50 [2, 10]: 6.84 ± 0.22 µM; IC50 ([3]; MRC5, read-out: IC50 MRC5): > 50 µM
O=C1C(Nc2cccc(C(F)(F)F)c2)=CCN1c1cccc(C(F)(F)F)c1 [11a]	> 50 µM	22.9 ± 1.13 µM	> 50 µM	melting point: 160 to 162 °C
O=C1C(Nc2ccc3ccccc3n2)=CC(c2ccc([N+](=O)[O-])cc2)N1c1ccc2ccccc2n1 (stereo not drawn) [12a]	> 50 µM	9.25 ± 1.49 µM	> 50 µM	Cytotoxic activity against SKOV3 cell line, in words [1]: No activity
Cc1ccc(N[C@@H]2C[C@H](C(F)(F)F)N(c3ccc(C)cc3)C2=O)cc1 [18a]	> 50 µM	3.27 ± 0.65 µM	> 50 µM	–
CCOP(=O)(C[C@H]1C[C@@H](Nc2ccc(C)cc2)C(=O)N1c1ccc(C)cc1)OCC [18b]	–	–	–	IC50 [1, 8]: > 50 µM; IC50 [2, 10]: 4.25 ± 0.65 µM; IC50 ([3]; MRC5, read-out: IC50 MRC5): > 50 µM; IC50 [4]: > 50 µM
Cc1ccc(/N=C(/C=C/C=C/c2ccccc2)C(=O)Nc2ccc(C)cc2)cc1 [20a, (2Z, 3E, 5E)-6-Phenyl-N-(p-tolyl)-2-(p-tolylimino)hexa-3,5-dienamide]	> 50 µM	6.9 ± 0.73 µM	> 50 µM	–
Cc1ccc(\N=C(/C=C/C=C/c2ccc(C(F)(F)F)cc2)C(=O)Nc2ccc(C)cc2)cc1 [20b]	> 50 µM	9.77 ± 0.17 µM	> 50 µM	–
CCOP(=O)(C[C@H]1C=C(Nc2ccc(C)cc2)C(=O)N1c1ccc(C)cc1)OCC [(R)-4v]	–	–	–	IC50 [2, 11]: 9.23 ± 1.68 µM
CCOP(=O)(C[C@@H]1C=C(Nc2ccc(C)cc2)C(=O)N1c1ccc(C)cc1)OCC [(S)-4v]	–	–	–	IC50 [2, 11]: 10.5 ± 0.8 µM
COc1cccc2c1C(=O)c1c(O)c3c(c(O)c1C2=O)C[C@@](O)(C(=O)CO)C[C@@H]3O[C@H]1C[C@H](N)[C@H](O)[C@H](C)O1 [Doxorubicin, reference compound]	–	–	> 50 µM	–
O=C1C(Nc2cccc(Cl)c2)=CC(c2ccc([N+](=O)[O-])cc2)N1c1cccc(Cl)c1 (stereo not drawn) [compound 9]	16.1 ± 0.81 µM	8.37 ± 1.27 µM	23.8 ± 1.75 µM	–
O=C1C(Nc2ccccc2F)=CC(c2ccc([N+](=O)[O-])cc2)N1c1ccccc1F (stereo not drawn) [compound 10]	5.55 ± 0.62 µM	4.36 ± 0.51 µM	> 50 µM	–
CCOC(=O)C1(C)C=C(Nc2ccc(C)cc2)C(=O)N1c1ccc(C)cc1 (stereo not drawn) [compound 16, Ethyl 2-methyl-5-oxo-1-(p-tolyl)-4-(p-tolylamino)-2,5-dihydro-1H-pyrrole-2-carboxylate]	> 50 µM	14 ± 1.05 µM	> 50 µM	melting point: 188 to 190 °C (dec.); IC50 [4]: > 50 µM
CCOP(=O)(CC1=C(C)C(C)(Nc2ccc(C)cc2)C(=O)N1c1ccc(C)cc1)OCC (stereo not drawn) [compound 19, Diethyl ((3,4-dimethyl-5-oxo-1-(p-tolyl)-4-(p-tolylamino)-4,5-dihydro-1H-pyrrol-2-yl)methyl)phosphonate]	–	–	–	IC50 [1, 8]: > 50 µM; IC50 [2, 10]: 3.65 ± 0.25 µM; IC50 ([3]; MRC5, read-out: IC50 MRC5): > 50 µM; IC50 [4]: > 50 µM
Cc1ccc(/N=C2/C=C(c3ccccc3)N(c3ccc(C)cc3)C2=O)cc1 [compound 21, (Z)-5-phenyl-1-(p-tolyl)-3-(p-tolylimino)-1,3-dihydro-2H-pyrrol-2-one]	16.7 ± 1.1 µM	0.6 ± 0.08 µM	6.12 ± 0.76 µM	melting point: 207 °C (dec.)
